These molecules were tested against T1, FAAH (Mus musculus, UniProt O08914) (assay: FAAH inhibition, mouse brain membrane homogenate assay). Conditions: average; FAAH extracted from mouse brain homogenate; read-out: Mouse Brain FAAH Extract IC50.
T1 construct: Whole brain tissue from these mice was collected; from tissue; host or cells: CD-1 mouse whole brain membrane homogenate
T1 sequence (O08914 1-579): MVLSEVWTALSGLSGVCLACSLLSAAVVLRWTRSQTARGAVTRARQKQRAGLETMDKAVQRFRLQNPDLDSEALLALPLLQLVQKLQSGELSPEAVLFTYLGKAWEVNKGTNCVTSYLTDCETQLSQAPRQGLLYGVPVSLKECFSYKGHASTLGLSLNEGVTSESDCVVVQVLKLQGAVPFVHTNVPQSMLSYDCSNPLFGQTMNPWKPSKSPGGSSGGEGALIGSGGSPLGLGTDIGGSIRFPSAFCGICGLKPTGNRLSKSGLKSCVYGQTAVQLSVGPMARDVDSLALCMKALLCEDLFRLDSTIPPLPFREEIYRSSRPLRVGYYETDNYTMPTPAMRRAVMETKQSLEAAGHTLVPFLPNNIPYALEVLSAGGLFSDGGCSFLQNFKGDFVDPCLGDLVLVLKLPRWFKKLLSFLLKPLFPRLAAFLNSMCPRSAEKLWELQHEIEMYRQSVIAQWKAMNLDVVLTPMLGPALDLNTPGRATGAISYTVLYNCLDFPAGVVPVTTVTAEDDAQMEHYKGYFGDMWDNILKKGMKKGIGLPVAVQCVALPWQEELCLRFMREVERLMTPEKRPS
Type: biochemical
Experimental: Adult rats (Charles River CD strain, female, 200 g) were anaesthetized with isofluorane and rapidly decapitated. Each brain was quickly removed and chilled in tubes (3 brains per tube) on ice. About 25 mL of “homogenization buffer” (20 mM HEPES buffer, pH 7.0, with 1 mM MgCl2) was added to 15 to 20 g of brain. The brains were homogenized on ice for 1 minute using an Omni GLH homogenizer (Omni International, Marietta, Ga.). The homogenates were then transferred to three centrifuge tubes and centrifuged at 36,500 g for 20 minutes at 4° C. The supernatant was discarded and each pellet was re-suspended in 25 mL homogenization buffer. The re-suspended material was again centrifuged (36,500 g, 20 minutes at 4° C.). Pellets were combined by resuspension in 10 mL of homogenization buffer and incubated in a 37° C. water bath for 15 minutes. The tubes were then placed on ice for 5 minutes followed by centrifugation at 36,500 g for 20 minutes at 4° C. The supernatant was discarded and the membrane pellets were then re-suspended in 40 mL of “resuspension buffer” (50 mM Tris-HCl buffer, pH 7.4, containing 1 mM EDTA and 3 mM MgCl2). A Bradford Protein assay was performed to determine protein concentration. The protein was aliquotted into screw cap Cryo tubes each containing ˜400 μL, flash frozen in liquid nitrogen and stored at −80° C. until used for the assay. A similar protocol was used to obtain brain membrane homogenates from mice.
Eighteen 10 to 12 week old female CD-1 mice housed at the animal care facility of Ironwood Pharmaceuticals were anesthetized by isoflurane anesthesia and rapidly decapitated using a small decapitator (Harvard Apparatus part #PY8 SS-0012, Holliston, Mass.). Whole brain tissue from these mice was collected (approximately 9.4 g total) and placed on aluminum foil sitting on dry ice to flash freeze the tissue. Tissue was thawed and used to prepare microsomes as described above for rat brain homogenates.
FAAH activity was assayed in the respective homogenates described herein (Rat brain, Mouse brain or Human brain) for certain exemplary substrate compounds using a modification of the method of Omeir et al. (1995 Life Sci 56:1999) and Fowler et al. (1997 J. Pharmacol Exp Ther 283:729). For assay of FAAH activity in rat brain membrane (RBM) homogenates, RBM homogenates (7 μg protein in 20 μL final volume of 10 mM Tris pH 6.5) were mixed with 180 μL of a mixture of the following: 2.0 μM unlabelled anandamide, 0.03 μCi radio labeled anandamide [ethanolamine 1-^3H] (40-60 Cis/mmol, product number ART-626, American Radiolabeled Chemicals, St. Louis, Mo.), 1 mg/mL Bovine Serum Albumin (fatty acid-free BSA, electrophoresis grade, Sigma, St. Louis, Mo.), 10 mM Tris-HCl (pH 6.5), and 1 mM EDTA in the presence and absence of test compounds (vehicle was DMSO at a final concentration of 1%) and incubated for 10 minutes at 37° C. Samples were placed on ice to terminate the reactions.
^3H-ethanolamine product and un-reacted ^3H-anandamide substrate were then separated either: (1) by using chloroform/methanol extraction or (2) by passing the reaction mixture through a glass fiber filter containing activated charcoal. Samples were extracted with chloroform/methanol by adding 0.4 mL of chloroform/methanol (1:1 v/v), vigorously mixing the samples, and separating the aqueous and organic phases by centrifugation. Radioactivity (corresponding to FAAH-catalyzed breakdown of ^3H-anandamide) found in aliquots (0.2 mL) of the aqueous phase was determined by liquid scintillation counting with quench correction. IC50 values were determined as described by Jonsson et al. (2001 Br. J. Pharmacol. 133:1263). Alternatively, reactions were purified using a modification of the solid-phase extraction method described by Wilson et al (2003 Anal. Biochem. 318:270). […]

Row | Structure (SMILES) | IC50 [nM]
1 | Cc1c(C(=O)C(=O)Nc2cccc(Cl)c2)c2ccsc2n1Cc1ccc(Cl)cc1 [Compound I-08, 2-(6-(4-chlorobenzyl)-5-methyl-6H-thieno[2,3-b]pyrrol-4-yl)-N-(3-chlorophenyl)-2-oxoacetamide] | > 5000
2 | COc1cc(NC(=O)C(=O)c2c(C)n(Cc3ccc(Cl)cc3)c3sccc23)ccn1 [Compound I-09, 2-(6-(4-chlorobenzyl)-5-methyl-6H-thieno[2,3-b]pyrrol-4-yl)-N-(2-methoxypyridin-4-yl)-2-oxoacetamide] | 62
3 | Cc1c(C(=O)C(=O)Nc2cccc(Cl)c2)c2c(n1Cc1ccc(Cl)cc1)CCCCCC2 [Compound I-10, 2-(1-(4-chlorobenzyl)-2-methyl-4,5,6,7,8,9-hexahydro-1H-cycloocta[b]pyrrol-3-yl)-N-(3-chlorophenyl)-2-oxoacetamide] | > 5000
4 | COc1cc(NC(=O)C(=O)c2c3c(n(Cc4ccc(Cl)cc4)c2C)CCCCCC3)ccn1 [Compound I-11, 2-(1-(4-chlorobenzyl)-2-methyl-4,5,6,7,8,9-hexahydro-1H-cycloocta[b]pyrrol-3-yl)-N-(2-methoxypyridin-4-yl)-2-oxoacetamide] | 192
5 | Cc1c(C(=O)C(=O)Nc2cccc(Cl)c2)c2c(n1Cc1ccc(Cl)cc1)CCCCC2 [Compound I-12, 2-(1-(4-chlorobenzyl)-2-methyl-1,4,5,6,7,8-hexahydrocyclohepta[b]pyrrol-3-yl)-N-(3-chlorophenyl)-2-oxoacetamide] | 1090
6 | COc1cc(NC(=O)C(=O)c2c3c(n(Cc4ccc(Cl)cc4)c2C)CCCCC3)ccn1 [Compound I-13, 2-(1-(4-chlorobenzyl)-2-methyl-1,4,5,6,7,8-hexahydrocyclohepta[b]pyrrol-3-yl)-N-(2-methoxypyridin-4-yl)-2-oxoacetamide] | 3
7 | Cc1c(C(=O)C(=O)Nc2cccc(Cl)c2)c2c(n1Cc1ccc(Cl)cc1)CCC(C)(C)C2 [Compound I-14, 2-(1-(4-chlorobenzyl)-2,5,5-trimethyl-4,5,6,7-tetrahydro-1H-indol-3-yl)-N-(3-chlorophenyl)-2-oxoacetamide] | 516
8 | COc1cc(NC(=O)C(=O)c2c3c(n(Cc4ccc(Cl)cc4)c2C)CCC(C)(C)C3)ccn1 [Compound I-15, 2-(1-(4-chlorobenzyl)-2,5,5-trimethyl-4,5,6,7-tetrahydro-1H-indol-3-yl)-N-(2-methoxypyridin-4-yl)-2-oxoacetamide] | 7
9 | Cc1c(C(=O)C(=O)Nc2cccc(Cl)c2)c2c(n1Cc1ccc(Cl)cc1)CCCC2 [Compound I-16, 2-(1-(4-chlorobenzyl)-2-methyl-4,5,6,7-tetrahydro-1H-indol-3-yl)-N-(3-chlorophenyl)-2-oxoacetamide] | 2080
10 | COc1cc(NC(=O)C(=O)c2c3c(n(Cc4ccc(Cl)cc4)c2C)CCCC3)ccn1 [Compound I-18, 2-(1-(4-chlorobenzyl)-2-methyl-4,5,6,7-tetrahydro-1H-indol-3-yl)-N-(2-methoxypyridin-4-yl)-2-oxoacetamide] | 9
